{"source": "paper PMC3910343", "about": "(Nephrology Dialysis Transplantation, 2013)", "origin": "cited, not measured here", "details": "oral cinacalcet", "data": [{"smiles": "C[C@@H](NCCCc1cccc(C(F)(F)F)c1)c1cccc2ccccc12", "note": "[cinacalcet]", "values": [{"measurement": "initial half-life", "value": "~6", "unit": "h"}, {"measurement": "time to steady state", "value": "≤ 7", "unit": "days"}]}]}
